Laboratory results taken from PMC11141368, “Antioxidant, antibacterial, enzyme inhibition and fluorescence characteristics of unsymmetrical thiourea derivatives” (Heliyon, 2024).

Assays:
[1] = ABTS free radical scavenging assay; format: biochemical
Description: (§1) In accordance with the procedure described in the literature, the ABTS activity assay was applied to evaluate the free radical scavenging capabilities of the synthesized compounds (1–6). ABTS solution was prepared by mixing 7 mM ABTS and 2.45 mM potassium persulfate and was then placed for 16 h under dark at room temperature. A methanol dilution was performed on the solution to achieve an absorbance of 0.706 ± 0.001 at 734 nm before starting the assay. To quantify the assay, 3 mL of the ABTS solution has been added to different concentrations (ranging from 62.5 to 1000 μg/mL) of every compound (300 μL) that were dissolved in methanol. Then after 1 min of incubation, the absorbance was continuously measured for 5 min. To confirm precision, all experiments were conducted in triplicate. The antioxidant capacities of the compounds were assessed with gallic acid as a reference, and the ability to remove free radicals was calculated as a percentage for each compound employing Equation.1 as presented below. Additionally, the DPPH free radical scavenging method was employed to assess the antioxidant activity of compounds (1–6), in accordance with a widely recognized procedure documented in existing literature. Concentrations ranging from 62.5 to 1000 μg/mL of compounds (1–6), dissolved in methanol, were introduced into a 2 mL solution of DPPH (0.002 % in methanol). The resulting solutions were kept in the dark at room temperature for a duration of 30 min. The amount of light absorbed by the solutions was then determined using a UV/vis spectrophotometer at a wavelength of 517 nm. The investigations were performed three times, using the exact protocol described for the ABTS scavenging assay. Afterwards, the antioxidant capabilities of each molecule were assessed using calculation.(1) Scavengingactivity(%)=A−B/A×100
(§2) Where, A = absorbance of ABTS/DPPH and B = absorbance of solution containing ABTS/DPPH and test samples.

[2] = molecular target: T1, butyryl cholinesterase (BChE) (Equus caballus, UniProt P81908); assay: Anticholinesterase assay (Elman's test), BChE; format: biochemical; settings: for inhibition at 62.5 µg/mL / inhibition at 125 µg/mL / inhibition at 250 µg/mL / inhibition at 500 µg/mL / inhibition at 1000 µg/mL: read-out: BChE Percent inhibition
T1 construct: The AChE was derived from the electric eel, while BChE was obtained from equineserum; from tissue; host or cells: equine serum
T1 sequence (P81908 whole entry): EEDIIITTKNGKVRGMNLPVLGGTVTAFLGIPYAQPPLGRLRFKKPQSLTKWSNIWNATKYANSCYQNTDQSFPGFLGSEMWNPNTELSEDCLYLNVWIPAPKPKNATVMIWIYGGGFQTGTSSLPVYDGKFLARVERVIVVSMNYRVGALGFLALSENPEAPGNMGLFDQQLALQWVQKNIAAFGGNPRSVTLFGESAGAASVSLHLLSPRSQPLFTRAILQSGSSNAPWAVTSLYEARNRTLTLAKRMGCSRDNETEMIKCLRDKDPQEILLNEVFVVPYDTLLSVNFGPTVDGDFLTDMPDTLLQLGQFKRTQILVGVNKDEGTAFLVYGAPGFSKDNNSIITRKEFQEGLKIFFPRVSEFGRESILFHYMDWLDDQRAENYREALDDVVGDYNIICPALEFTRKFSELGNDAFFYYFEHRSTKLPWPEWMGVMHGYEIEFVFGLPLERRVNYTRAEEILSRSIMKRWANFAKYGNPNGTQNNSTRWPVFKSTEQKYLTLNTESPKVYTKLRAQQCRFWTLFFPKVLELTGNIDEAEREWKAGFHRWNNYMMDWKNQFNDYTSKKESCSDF
Description: (§3) This assay employed two enzymes, namely acetylcholinesterase (AChE) and butyryl cholinesterase (BChE). The AChE was derived from the electric eel, while BChE was obtained from equineserum. The synthesized compounds were dissolved in phosphate buffer (0.1 M, pH 8.0). The enzymes AChE (518 U/mg) and BChE (7–16 U/mg) were diluted in a 0.1 M phosphate buffer to achieve concentrations of 0.03 U/mL and 0.01 U/mL, respectively. Preparations of ATchI (0.5 mM), DTNB (0.2273 mM), and BTchI (0.5 mM) were made in distilled water and stored at a low temperature of 8 °C. […] The solution was heated to 30 °C for 15 min, followed by the gradual addition of the substrate. Absorbance of the heated sample at 412 nm was measured using a double beam spectrophotometer. […] The percentage activity (A) and inhibition of the enzyme were determined by applying the rate of absorption as a function of time (V=ΔAbs/Δt) using the following equation (Equation (2)).(2) %Inhibition=V/Vmax×100 Where V = enzyme inhibition activity of products and Vmax = enzyme activity without test of product.

S. typhi = assay: Antibacterial agar well diffusion; format: cell-based, Salmonella typhi (ATCC0650); settings: Salmonella enterica, TYPHI, 24 h, 6.25 mg/mL per well, 37 °C
Excerpt: (§4) The antibacterial assay was done for all compounds (1–6) as described in previous studies. The mean number of viable organisms per milliliter of stock suspensions containing Escherichia coli (ATCC25922), Pseudomonas aeruginosa (ATCC27853), Salmonella typhi (ATCC0650), and Staphylococcus aureus (NCTC25953) was uncovered using the surface viable counting method. Preparations of suspensions containing approximately 108–109 colony forming units (CFU) per milliliter were made. Aseptic nutritional agar was formulated and transferred onto petri dishes. Cultures of bacteria were uniformly distributed on agar surface using sterile brush sticks. Five wells, each with a diameter of 6 mm, were made in each plate using a sterile borer. Afterwards, a concentration of 6.25 mg/mL of each component was applied to separate wells. Cephradine, a readily accessible antibiotic, was employed as a reference standard at an equivalent concentration. Following sealing, the agar dishes were incubated at a controlled temperature of 37 °C for a period of 24 h. The zone of inhibition in the plates was determined, which represents the inhibition of bacterial growth. Each sample zone of inhibition diameter was evaluated, and the antibacterial effectiveness of each drug was quantified according to the mean diameter of the inhibition zone (in millimetres).

[3] = DPPH free radical scavenging assay; format: biochemical
Description: as §1, §2

S. flexenari = assay: Antibacterial agar well diffusion; format: cell-based; settings: 24 h, 6.25 mg/mL per well, 37 °C
P. aeruginosa = assay: Antibacterial agar well diffusion; format: cell-based, Pseudomonas aeruginosa (ATCC27853); settings: Pseudomonas aeruginosa, 24 h, 6.25 mg/mL per well, 37 °C
Excerpt: as §4

E. coli = assay: Antibacterial agar well diffusion; format: cell-based, Escherichia coli (ATCC25922); settings: Escherichia coli, 24 h, 6.25 mg/mL per well, 37 °C
Excerpt: as §4

[4] = molecular target: T2, acetylcholinesterase (AChE) (Electrophorus electricus, UniProt O42275); assay: biochemical; settings: for inhibition at 62.5 µg/mL / inhibition at 125 µg/mL / inhibition at 250 µg/mL / inhibition at 500 µg/mL / inhibition at 1000 µg/mL: read-out: AChE Percent inhibition
T2 construct: The AChE was derived from the electric eel, while BChE was obtained from equineserum; from tissue; host or cells: electric eel (tissue not specified)
T2 sequence (O42275 24-633): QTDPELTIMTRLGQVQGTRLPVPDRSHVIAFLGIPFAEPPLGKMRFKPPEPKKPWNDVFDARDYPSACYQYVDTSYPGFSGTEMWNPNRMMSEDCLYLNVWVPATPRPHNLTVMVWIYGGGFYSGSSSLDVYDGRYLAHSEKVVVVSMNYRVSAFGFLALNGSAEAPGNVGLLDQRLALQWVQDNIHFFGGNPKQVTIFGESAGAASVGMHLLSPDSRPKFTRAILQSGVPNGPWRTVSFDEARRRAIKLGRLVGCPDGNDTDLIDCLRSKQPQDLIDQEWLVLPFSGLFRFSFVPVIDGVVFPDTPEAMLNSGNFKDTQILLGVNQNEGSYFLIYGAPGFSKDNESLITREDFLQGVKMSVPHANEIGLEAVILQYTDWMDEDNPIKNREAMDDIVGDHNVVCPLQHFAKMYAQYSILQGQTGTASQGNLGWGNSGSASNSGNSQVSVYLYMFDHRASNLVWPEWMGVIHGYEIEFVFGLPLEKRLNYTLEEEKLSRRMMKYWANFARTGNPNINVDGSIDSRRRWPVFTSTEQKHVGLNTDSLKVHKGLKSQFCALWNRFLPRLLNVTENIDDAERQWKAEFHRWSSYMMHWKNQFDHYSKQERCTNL
Description: as §3

With Cc1cccnc1NC(=S)Nc1ccccc1 [Compound 5, 1-(3-methylpyridin-2-yl)-3-phenylthiourea] the “ABTS IC50” value [1] was 44.60 µg/mL, the ABTS %inhibition ([1]; 62.5 μg/mL) was 67.80 ± 1.50% and the ABTS %inhibition ([1]; 125 μg/mL) was 72.56 ± 1.06%. For the same molecule, the ABTS %inhibition ([1]; 250 μg/mL) was 77.42 ± 0.43%, the ABTS %inhibition ([1]; 500 μg/mL) was 85.23 ± 1.83% and the ABTS %inhibition ([1]; 1000 μg/mL) was 92.76 ± 0.71%. It also gave an inhibition at 62.5 µg/mL [2] of 31.9 ± 0.48%, an inhibition at 125 µg/mL [2] of 39 ± 0.48% and an inhibition at 250 µg/mL [2] of 47.9 ± 0.96%. It also gave an inhibition at 500 µg/mL [2] of 61.6 ± 1.34%, an inhibition at 1000 µg/mL [2] of 69.6 ± 1.12% and a zone of inhibition at 6250 µg/mL (S. typhi) of 11.5 mm. The “DPPH IC50” value [3] was 37.50 µg/mL, the DPPH %inhibition ([3]; 62.5 μg/mL) was 62.44 ± 0.58% and the DPPH %inhibition ([3]; 125 μg/mL) was 67.56 ± 1.73%. For the same molecule, the DPPH %inhibition ([3]; 250 μg/mL) was 74.31 ± 2.15%, the DPPH %inhibition ([3]; 500 μg/mL) was 81.65 ± 1.34% and the DPPH %inhibition ([3]; 1000 μg/mL) was 88.58 ± 1.12%. For the same molecule, the zone of inhibition at 6250 µg/mL (S. flexenari) was 10.5 mm, the zone of inhibition at 6250 µg/mL (P. aeruginosa) was 9.5 mm and the zone of inhibition at 6250 µg/mL (E. coli) was 10.5 mm. It also gave an IC50 [4] of 1410 µM, an inhibition at 62.5 µg/mL [4] of 38.7 ± 0.68% and an inhibition at 125 µg/mL [4] of 44.7 ± 1.25%. For the same molecule, the inhibition at 250 µg/mL [4] was 48 ± 0.75%, the inhibition at 500 µg/mL [4] was 56.3 ± 1.06% and the inhibition at 1000 µg/mL [4] was 63.3 ± 0.98%.
In the case of S=C(Nc1ccccc1)Nc1cccc(Cl)c1 [Compound 6, 1-(3-chlorophenyl)-3-phenylthiourea], the “ABTS IC50” value [1] is reported as 86.03 µg/mL, the ABTS %inhibition ([1]; 62.5 μg/mL) is reported as 44.27 ± 1.53% and the ABTS %inhibition ([1]; 125 μg/mL) is reported as 53.26 ± 2.76%. It also gave an ABTS %inhibition ([1]; 250 μg/mL) of 63.09 ± 1.34%, an ABTS %inhibition ([1]; 500 μg/mL) of 75.19 ± 2.59% and an ABTS %inhibition ([1]; 1000 μg/mL) of 81.28 ± 2.17%. For the same molecule, the IC50 [2] was 216 µM, the inhibition at 62.5 µg/mL [2] was 51.61 ± 0.43% and the inhibition at 125 µg/mL [2] was 55.1 ± 0.6%. The inhibition at 250 µg/mL [2] was 61.2 ± 1.4%, the inhibition at 500 µg/mL [2] was 66.8 ± 7.85% and the inhibition at 1000 µg/mL [2] was 71.6 ± 1.63%. The zone of inhibition at 6250 µg/mL (S. typhi) was 9.5 mm, the “DPPH IC50” value [3] was 90.30 µg/mL and the DPPH %inhibition ([3]; 62.5 μg/mL) was 43.49 ± 2.72%. For the same molecule, the DPPH %inhibition ([3]; 125 μg/mL) was 53.66 ± 1.17%, the DPPH %inhibition ([3]; 250 μg/mL) was 61.47 ± 2.74% and the DPPH %inhibition ([3]; 500 μg/mL) was 76.24 ± 2.61%. The DPPH %inhibition ([3]; 1000 μg/mL) was 82.19 ± 2.32%, the zone of inhibition at 6250 µg/mL (S. flexenari) was 10.5 mm and the zone of inhibition at 6250 µg/mL (P. aeruginosa) was 15.5 mm. It also gave a zone of inhibition at 6250 µg/mL (E. coli) of 8.5 mm, an IC50 [4] of 329 µM and an inhibition at 62.5 µg/mL [4] of 47.61 ± 0.43%. It also gave an inhibition at 125 µg/mL [4] of 52.7 ± 1.01%, an inhibition at 250 µg/mL [4] of 57.8 ± 1.5% and an inhibition at 500 µg/mL [4] of 62.84 ± 0.3%. The inhibition at 1000 µg/mL [4] was 67.51 ± 0.54%.
